Experimental data taken from patent US7122360B1, “Polypeptides, polynucleotides and uses thereof” (University of Dundee, priority 1998, dated 2006).
“Also recorded” adds a separate entry of the source.

Assays:
CREB and ATF1 [1] = test: Phosphorylation of CREB (Ser133) and ATF1 (Ser63) in 293 cells, immunoblot; type: cell-based, human; settings: for EGF-induced CREB phosphorylation: 5 μM Ro 318220, 10 μM SB 203580, 50 μM PD 98059, EGF 100 ng/ml; for UV radiation-induced phosphorylation of CREB and ATF1: 5 μM Ro 318220, 10 μM SB 203580, 50 μM PD 98059
Method: FIG. 10. […] 293 cells were pre-treated either in the presence or absence of 5 μM Ro 318220 (Ro), 10 μM SB 203580 (SB), 50 μM PD 98059 (PD), and then exposed to either (A, D) UV radiation (200 J/m^2, 30 min and then 30 min at 37° C.) (B, E) EGF (100 ng/ml, 15 min), (C) forskolin (20 μM, 15 min). The cells were lysed and proteins were separated on 10% acrylamide gels and immunoblotted using a phosphospecific antibody that recognised both CREB and ATF1 when phosphorylated on Ser133 and Ser63 respectively. The position of CREB and ATF1 on the blots is indicated.
(§1) Immunoblotting for phosphorylated CREB and ATF1. Cell extracts were prepared and immunoblotting of these carried out as described (Tan et al., 1996) using a phosphospecific antibody recognizing CREB phosphorylated on Ser 133 and ATF1 phosphorylated on Ser63 purchased from UBI (Lake Placid, USA). Detection of phosphorylated CREB and ATF1 proteins was performed using the enhanced chemiluminescence reagent (Amersham).

MSK1 [2] = test: Activation of MSK1 by TNF in HeLa cells; type: cell-based; settings: 50 μM PD 98059, 10 μM SB 203580, TNF 10 ng/ml
Description: (§2) Cell Culture, stimulation and cell lysis.

MSK1 [3] = test: Arsenite and FGF-induced activation of MSK1 in SK-N-MC cells; type: cell-based; settings: for FGF-induced activation of MSK1: 50 μM PD 98059, 10 μM SB 203580, FGF 50 ng/ml 15 min
Method: FIG. 14. […] After cell lysis aliquots were assayed for either MSK1 (A), MAPKAP-K1 (B), MAPKAP-K2 (C) after their immunoprecipitation from the lysates or immunoblotted for phosphorylation of CREB and ATF1 (D).
as §2

CREB and ATF1 [4] = test: CREB and ATF1 phosphorylation in RAW 264 macrophages, immunoblot; type: cell-based, mouse; settings: for LPS-induced phosphorylation of CREB and ATF1: LPS 100 ng/ml 1 h
Method: FIG. 15. […] After cell lysis aliquots were assayed for either MSK1 (A), MAPKAP-K1 (B), MAPKAP-K2 (C) after their immunoprecipitation from the lysates or immunoblotted for phosphorylation of CREB and ATF1 (D).
FIG. 19. […] (A) Macrophages were stimulated for the times indicated with LPS (100 ng/ml). After cell lysis, aliquots of the lysate (30 Tg protein) were denatured in SDS, electrophoresed on a 10% polyacrylamide gel, transferred to a nitrocellulose membrane, and immunoblotted with a phospho-CREB antibody. The positions of the molecular mass markers glycogen phosphorylase (97 kDa), bovine serum albumin (66 kDa), ovalbumin (43 kDa) and carbonic anhydrase (30 kDa) are indicated. […] (B) As in A, except that the macrophages were incubated for 1 h in the presence or absence of 50 TM PD 98059 and/or 10 TM SB 203580 (SB), or 5 TM Ro 318220 (Ro), then stimulated for 1 h in the absence or presence of 100 ng/ml LPS and in the continued presence or absence of the inhibitors.
FIG. 22. […] (A) Macrophages were stimulated for 1 h with LPS (100 ng/ml) or for 15 min with forskolin (F) (20 TM) plus IBMX (10 TM). After cell lysis, aliquots of the lysate (30 Tg protein) were immunoblotted with a phospho-specific CREB antibody (see legend to FIG. 19 for details and molecular mass markers). (B) Macrophages were stimulated for 3 h with LPS (100 ng/ml), or forskolin (20 TM) plus IBMX (10 TM), and immunoblotting performed with a specific COX-2 antibody (materials & methods section). The marker proteins are as in FIG. 19.
Cell culture and stimulation. RAW 264 macrophages were maintained in a 95% air/5% CO2 atmosphere in Dulbecco's modified Eagle's medium (DMEM) plus 10% (v/v) heat-inactivated foetal calf serum, 100 U/ml penicillin, […] streptomycin. The day before stimulation, the macrophages were plated at a density of 2×10^6 cells per 6 cm plate and 2 h before stimulation, the medium removed and replaced with 2 ml of DMEM. Where indicated, […] (10 TM) and/or PD 98059 (50 Tm), or U0126 (10 TM) or Ro 318220 (5 TM), were added 1 h before stimulation.
Immunoblotting. For immunoblotting of CREB, nuclear cell extracts were prepared as described and immunoblotting performed using a phospho-specific antibody recognising CREB phosphorylated on Ser 133 and ATF1 phosphorylated on Ser 63. For immunoblotting of COX-2, cell lysate (30 Tg protein) was denatured in SDS, electrophoresed on 10% polyacrylamide gel, transferred to a nitrocellulose membrane, and immunoblotted with anti-COX-2 antibody (1.0 mg/ml). Detection of phosphorylated CREB and ATF1 and COX-2 was performed using the enhanced chemiluminescence reagent (ECL).

CREB and ATF1 [5] = test: TNF induced CREB and ATF1 phosphorylation in HeLa cells; type: cell-based; settings: for TNF-induced phosphorylation of CREB after 15 min / TNF-induced phosphorylation of CREB and ATF1 after 5 min: 50 μM PD 98059, 10 μM SB 203580
Method: FIG. 12. […] The position of CREB and ATF1 on the blots is indicated. The time of exposure (exp) of the blots before development is indicated.
as §1

MSK1 [6] = test: Activation of endogenous MSK1 in 293 cells (immunoprecipitation and Crosstide assay); type: cell-based, human; settings: for activation of MSK1 by EGF and TPA: 50 μM PD 98059 or 10 μM SB 203580, 1 h
MAPKAP-K1 = test: NGF-induced activation of MAPKAP-K1 in PC12 cells; settings: 50 μM PD 98059, 10 μM SB 203580
MSK2 = test: LPS-induced activation of MSK2 in RAW 264 macrophages; type: cell-based, mouse; settings: LPS 100 ng/ml 1 h, 10 μM UO 126, 10 μM SB 203580, 5 TM Ro 318220
MAPKAP-K2 = test: LPS-induced activation of MAPKAP-K2 in RAW 264 macrophages; type: cell-based, mouse; settings: LPS 100 ng/ml 1 h, 10 μM SB 203580, 5 TM Ro 318220
[7] = 50 TM PD 98059, 10 TM SB 203580, 5 TM Ro 318220

Row | Compound | EGF-induced CREB phosphorylation (CREB and ATF1 [1]) | activation of MSK1 by TNF after 5 min (MSK1 [2]) | activation of MSK1 by TNF after 15 min (MSK1 [2]) | FGF-induced activation of MSK1 (MSK1 [3]) | LPS-induced phosphorylation of CREB and ATF1 (CREB and ATF1 [4]; [7]) | TNF-induced phosphorylation of CREB after 15 min (CREB and ATF1 [5]) | TNF-induced phosphorylation of CREB and ATF1 after 5 min (CREB and ATF1 [5]) | activation of MSK1 by EGF and TPA (MSK1 [6]) | NGF-induced activation of MAPKAP-K1 (MAPKAP-K1) | UV radiation-induced phosphorylation of CREB and ATF1 (CREB and ATF1 [1]) | phosphorylation of CREB and ATF1 induced by forskolin (CREB and ATF1 [1]; 5 μM Ro 318220, forskolin 20 μM, 15 min) | MSK1 activation in cells (MSK1 [3]; 5 μM Ro 318220, inhibitor removed on immunoprecipitation) | forskolin-triggered phosphorylation of CREB and ATF-1, effect of inhibitors (CREB and ATF1 [4]; data not shown) | TNF-induced CREB phosphorylation (CREB and ATF1 [5]; 5 μM Ro 318220) | LPS-induced activation of MSK2 (MSK2) | LPS-induced activation of MAPKAP-K2 (MAPKAP-K2) | sodium arsenite-induced activation of MSK1 (MSK1 [3]; 50 μM PD 98059, 10 μM SB 203580, arsenite 0.5 mM 15 min) | LPS-induced phosphorylation of CREB and ATF1 (CREB and ATF1 [4]; 50 TM PD 98059, 10 TM SB 203580, 5 TM Ro 318220, listed as SB203580) | activation of MSK1 by stressful stimuli (MSK1 [6]; sodium arsenite, UV radiation or H2O2, 50 μM PD 98059 or 10 μM SB 203580)
1 | COc1cccc(-c2cc(=O)c3ccccc3o2)c1N [PD 98059] | prevented | unaffected | partially blocked | only partially suppressed | appear to inhibit; also recorded: partially inhibited | slightly suppressed | unaffected | largely prevented | only partially inhibited | – | – | – | – | – | – | – | – | – | –
2 | Cn1cc(C2=C(c3cn(CCCSC(=N)N)c4ccccc34)C(=O)NC2=O)c2ccccc21 [Ro 318220] | largely inhibited | – | – | – | completely prevents | – | – | – | – | largely inhibited | unaffected | does not affect MSK1 activation | not suppressed | completely blocked | does not affect | does not affect | – | – | –
3 | C[S+]([O-])c1ccc(-c2nc(-c3ccncc3)c(-c3ccc(F)cc3)[nH]2)cc1 (stereo not drawn) [SB 203580] | not SB203580 | completely inhibited | partially blocked | only partially suppressed | partially inhibited | partially suppressed | prevented | but not by SB 203580 | unaffected | inhibited | – | – | – | – | only inhibited partially | completely block | prevented | appear to inhibit | largely inhibited
